Patent US10568892B2, “Cycloartane tetracyclic triterpenoid compound, preparation method therefor and use thereof” (Hefei Cosource Pharmaceuticals Inc., priority 2016, dated 2020)
Marks after values point to notes of the source that are not given here.

Legend:
guinea pig heart = assay: Atrial fibrillation induced by high- and low-potassium Langendorff perfusion of the guinea pig heart; details: 1 μM; within 60 min of low-potassium perfusion
Source text: Method: a total of 24 guinea pigs were divided into 4 groups according to body weight, and were sacrificed. The heart was quickly taken out, and the blood was squeezed in the ice bath perfusion solution. The heart was quickly transferred in the Langendorff perfusion system, and the perfusion at a constant rate was started by turning on the oxygen-saturated perfusate. One end of the electrode was placed at the cardiac apex, and one end was placed at the right atrium (the position of the atrial appendage). The electrocardiogram was recorded on the computer.
After the heart was stabilized, 10 min after the perfusion of high-K perfusate, blank vehicle, 0.1 μM, 1 μM, and 10 μM of Compound 369, 1 μM Amiodarone and Cyclovirobuxine D were simultaneously administrated and the high K perfusion was continued for 20 min, respectively. Then, the high K perfusion was removed to administrate the low-K perfusate, and the electrocardiogram was obtained at the same time to record whether there was atrial fibrillation within 60 min of low-potassium perfusion.

[1] = test system: ventricular papillary muscle cell of guinea pig; assay: Action potential of the ventricular papillary muscle cell of guinea pig (electrophysiological recording); assay type: cell-based; details: for Effect on the APD value of the action potential of the papillary muscle (in words): Table 3 summary
Description: Method: One guinea pig was taken to violently hit the back of the brain such that it fainted. The common carotid artery was cut off for bleeding to kill the guinea pig. The chest was incised to expose the heart, and the ventricle was cut open along the interventricular septum to expose the lumen of the left ventricle. The papillary muscles were quickly taken out and placed in a Kreb's solution saturated with O2 (mixed gas of 95% O2 and 5% CO2) at 0° C. After the microscopic dressing, the papillary muscle specimen was fixed with a stainless steel needle on the silicone rubber at the bottom of the perfusion bath, and perfused with the oxygen-saturated Kreb's solution. The relevant parameters for perfusion: the temperature was 37±0.5° C., and the flow rate was 4 mL/min.
Cellular action potentials were recorded using a conventional electrophysiological method. The glass electrode filled with 3M KCl saturated solution and having a tip resistance of 15-30 MΩ was fixed on the microelectrode manipulator MP-2. The glass electrode was gently inserted into the superficial layer of the prepared papillary muscle specimen using a microelectrode pusher. The electrode was adjusted to provide the predetermined bioelectrical stimulation with the triple-channel SEN-7203 electronic stimulator and SS-202 J isolator. The bioelectrical signal was amplified by the MEZ-8301 amplifier and then input to the computerized electrophysiological recording and analysis system Powerlab 4/25. Subsequently, the relevant parameters of the action potential for the ventricular papillary muscle were analyzed through the analysis system. The relevant parameters for electrical stimulation: 30 ms latency, 7 ms wavewidth, 1 Hz frequency, 52.1 my stimulation intensity.
In the compound screening test stage, after the ventricular papillary muscle specimen of the guinea pig was fixed, it was first perfused with a normal Kreb's solution for about 85 minutes for stabilization, and the relevant parameters of the cellular action potential before administration were recorded at about 80 min after the start of perfusion. The three-limb tube was used to convert the perfusates containing the title compounds. The title compounds were continuously perfused for about 25 min successively with low (0.0005 μM), medium (0.005 μM), and high (0.05 μM) concentrations, respectively. At about 20 min after the start of drug perfusions at different concentrations, the relevant parameters of the action potentials for the ventricular papillary muscle of guinea pig were observed and recorded, respectively. The normal Kreb's solution was used to perfuse and elute for about 25 min during the intervals between drug perfusions at different concentrations.
The experiment was divided into the following five groups with 6 animals in each group: a vehicle control group, a 369 low dose (0.0005 μM) group, a 369 medium dose (0.005 μM) group, a 369 high dose (0.05 μM) group, and an amiodarone (10 μM) positive control group. After the ventricular papillary muscle specimen of the guinea pig was fixed, it was first perfused with a normal Kreb's solution for about 85 minutes for stabilization, and the relevant parameters of the cellular action potential before administration were recorded at about 80 min after the start of perfusion. According to groups, the three-limb tube was configured to convert the perfusates containing the vehicle, positive control, or Compound 369 at the corresponding concentrations to continuously perfuse for about 25 min. At about 20 min after the start of the perfusions, the relevant parameters of the action potentials for the ventricular papillary muscle of guinea pig were observed and recorded.

SD rats [2] = assay: Rat myocardial ischemia model with coronary artery ligation and reperfusion (arrhythmia incidence); assay type: in vivo; details: injection (sublingually) 5 min before ischemia
Source text: Method: SD rats were anesthetized with pentobarbital, and a cervical midline incision was made to separate and cut off the trachea such that it was connected to a respirator. The skin was cut along the midline of the left clavicle of the rat, and the chest was opened between the left third and fourth ribs to gently squeeze out the heart. The pericardium was opened, the needle was inserted at the left edge of the pulmonary artery cone and 2 mm at the lower edge of the left atrial appendage. The 6-0 non-invasive suture was threaded through the superficial myocardium, with the left anterior descending coronary artery (LAD) located thereon. After stabilization for 5 min, a double-layer plastic cannula was put on, and the cable tie was tighten to complete the myocardial ischemia induced by left coronary artery occlusion. The criterion for myocardial ischemia is the occurrence of myocardial infarction (St-segment ran up or T-wave was shown as high sharp wave) in the electrocardiogram and the presence of local cyanosis in the heart. After 5 min of myocardial ischemia, the inner cannula was withdrawn, that is, the wire knot was released for reperfusion, and the electrocardiogram of reperfusion in the rat was recorded.
The administration was performed at 5 min before the ischemia by coronary artery ligation, and the administration mode was injection administration (sublingually).

[3] = Pharmacokinetics in SD rats; assay type: in vivo, rat; details: SD rats, 2 mg/kg
Description: Method: twelve SD male rats were divided into four groups: 2 mg/kg of Compound 369 or cyclovirobuxine D was single dose through the intravenous injection or intragastrical administration, respectively. In the intravenous and intragastrical groups, blood samples (about 0.3 Ml) were collected from the posterior orbital venous plexus pro-dose and 0.25 h, 0.5 h, 1 h, 2 h, 4 h, 6 h, 8 h, and 12 h post-dose. The concentrations of Compound 369 and cyclovirobuxine D in plasma samples were determined by LC-MS/MS, and the pharmacokinetic parameters were calculated by DAS.3.0 software.

SD rats [4] = assay: Single-dose toxicity (MTD) in SD rats; assay type: in vivo; details: SD rat; single intravenous injection
Source text: (§1) The results of the experimental study on the toxicity of Compound 369 administrated through a single intravenous or intragastrical administration in SD rats and KM mice are shown in Table 9.

[5] = Pharmacokinetics in Beagle canines; assay type: in vivo; details: Beagle canines; 2 mg/kg; intragastrical administration
Description: Method: Six healthy male Beagle canines were selected and divided into two groups. 2 mg/kg of Compound 369 or cyclovirobuxine D was administrated intragastrically, respectively. Blood samples (about 2 mL) were collected from the limb venous of canines 0 h before administration as well as 0.25 h, 0.5 h, 1 h, 2 h, 4 h, 6 h, 8 h, and 12 h after administration. The concentrations of Compound 369 and cyclovirobuxine D in plasma samples were determined by LC-MS/MS, and the pharmacokinetic parameters were calculated by DAS.3.0 software.

KM mice = assay: Single-dose toxicity (MTD) in KM mice; assay type: in vivo; details: KM mouse; single intragastrical administration
Source text: as §1

[6] = test system: ventricular myocytes of guinea pig; details: literature, cited from earlier work
[7] = n = 6, x ± SD, 10 μM group, baseline
[8] = Cavia porcellus, 20 min, screening stage, 0.0005 μM, read-out: APD, Change rate (%)
[9] = Cavia porcellus, 20 min, screening stage, 0.005 μM, read-out: APD, Change rate (%)
[10] = Cavia porcellus, 20 min, screening stage, 0.05 μM, read-out: APD, Change rate (%)
[11] = screening stage, 0.0005 μM, about 20 min perfusion
[12] = screening stage, 0.005 μM, about 20 min perfusion
[13] = screening stage, 0.05 μM, about 20 min perfusion

With CCCCc1oc2ccccc2c1C(=O)c1cc(I)c(OCCN(CC)CC)c(I)c1 [Amiodarone, reference compound] the “Incidence (%) of atrial fibrillation” value (guinea pig heart) was 17%, the “Number of animals developing atrial fibrillation” value (guinea pig heart) was 1 and the percent change in action potential duration at 10 µM ([1]; Cavia porcellus, 20 min, n = 6, x ± SD, 10 μM, read-out: APD, Change rate (%)) was 56.8%. The “APD50, Change rate (%)” value ([1]; n = 6, x ± SD, 10 μM) was 93.34% ± 53.59%^b, the “APD50, Post-administration” value ([1]; n = 6, x ± SD, 10 μM) was 0.0590 ± 0.0269^a and the “APD90, Change rate (%)” value ([1]; n = 6, x ± SD, 10 μM) was 68.91% ± 33.59%^b. For the same molecule, the “APD90, Post-administration” value ([1]; n = 6, x ± SD, 10 μM) was 0.0862 ± 0.0275^a, the “APD, Post-administration” value ([1]; n = 6, x ± SD, 10 μM) was 0.1028 ± 0.0258^a and the “APD50, Pre-administration” value [1, 7] was 0.0313 ± 0.0131. For the same molecule, the “APD90, Pre-administration” value [1, 7] was 0.0524 ± 0.0175, the “Death (%)” value (SD rats [2]; 3 mg/kg) was 13% and the Death n (SD rats [2]; 3 mg/kg) was 1. For the same molecule, the “Ventricular fibrillation (%)” value (SD rats [2]; 3 mg/kg) was 38%, the Ventricular fibrillation n (SD rats [2]; 3 mg/kg) was 3 and the “Ventricular premature beat (%)” value (SD rats [2]; 3 mg/kg) was 100%. For the same molecule, the “Ventricular premature beat n” value (SD rats [2]; 3 mg/kg) was 8, the “Ventricular tachycardia (%)” value (SD rats [2]; 3 mg/kg) was 87% and the Ventricular tachycardia n (SD rats [2]; 3 mg/kg) was 7.
For CN[C@H]1CC[C@]23C[C@]24CC[C@]2(C)C(C(=O)COC(C)=O)=CC[C@@]2(C)[C@@H]4CC[C@H]3C1(C)C [Compound 427, (3β,5α)-4,4,14-trimethyl-21-acetoxy-3-(methylamino)-9,19-cyclopregnan-16-en-20-one], the percent change in action potential duration at 0.0005 µM [1, 8] was 18.2%, the percent change in action potential duration at 0.005 µM [1, 9] was 20.6% and the percent change in action potential duration at 0.05 µM [1, 10] was 42.9%. For the same molecule, the “Effect on the APD value of the action potential of the papillary muscle (in words)” value ([1]; screening stage) was “a certain degree of prolonged effects”, the “APD, Post-administration” value [1, 11] was 0.0903 and the “APD, Post-administration” value [1, 12] was 0.0929. The “APD, Post-administration” value [1, 13] was 0.1073.
CN[C@@H](C)[C@H]1[C@H](O)C[C@@]2(C)[C@@H]3CC[C@H]4C(C)(C)[C@@H](NC)CC[C@@]45C[C@@]35CC[C@]12C [Cyclovirobuxine D, reference compound] gave an AUCt ([3]; intragastrical administration) of 110.6 ng·h/mL, a Cmax ([3]; intragastrical administration) of 16.30 ng/mL and an F ([3]; intragastrical administration) of 36%. It also gave a T1/2 ([3]; intragastrical administration) of 18.85 h, a Tmax ([3]; intragastrical administration) of 2.75 h and an AUCt ([3]; intravenous injection) of 310.0 ng·h/mL. It also gave a Cmax ([3]; intravenous injection) of 146.2 ng/mL, a T1/2 ([3]; intravenous injection) of 8.54 h and a Tmax ([3]; intravenous injection) of 0.25 h. The “Incidence (%) of atrial fibrillation” value (guinea pig heart) was 83%, the “Number of animals developing atrial fibrillation” value (guinea pig heart) was 5 and the “Maximum tolerance dose (MTD)” value (SD rats [4]) was 5 mg/kg. For the same molecule, the AUCt [5] was 274.3 ng·h/mL, the Cmax [5] was 19.09 ng/mL and the T1/2 [5] was 15.90 h. For the same molecule, the Tmax [5] was 3.55 h, the “Maximum tolerance dose (MTD)” value (KM mice) was 400 mg/kg and the “Death (%)” value (SD rats [2]; 1 mg/kg) was 50%. For the same molecule, the Death n (SD rats [2]; 1 mg/kg) was 3, the “Ventricular fibrillation (%)” value (SD rats [2]; 1 mg/kg) was 83% and the Ventricular fibrillation n (SD rats [2]; 1 mg/kg) was 5. For the same molecule, the “Ventricular premature beat (%)” value (SD rats [2]; 1 mg/kg) was 100%, the “Ventricular premature beat n” value (SD rats [2]; 1 mg/kg) was 6 and the “Ventricular tachycardia (%)” value (SD rats [2]; 1 mg/kg) was 100%. The Ventricular tachycardia n (SD rats [2]; 1 mg/kg) was 6, the “Effect on APD of the action potential (in words)” value ([6]; 0.024 μM) was “can prolong the APD” and the “Spontaneous activity frequency of cardiomyocytes (in words)” value ([6]; 0.012-0.036 μM) was “slow down or even disappear”.
CN[C@H]1CC[C@]23C[C@]24CC[C@]2(C)C(C(C)=O)=C(C)C[C@@]2(C)[C@@H]4CC[C@H]3C1(C)C [Compound 383a, (3β,5α)-4,4,14,16-tetramethyl-3-(methylamino)-9,19-cyclopregnan-16-en-20-one] showed a percent change in action potential duration at 0.0005 µM [1, 8] of 4.02%, a percent change in action potential duration at 0.005 µM [1, 9] of 33% and a percent change in action potential duration at 0.05 µM [1, 10] of 30%. For the same molecule, the “Effect on the APD value of the action potential of the papillary muscle (in words)” value ([1]; screening stage) was “a certain degree of prolonged effects”, the “APD, Post-administration” value [1, 11] was 0.0751 and the “APD, Post-administration” value [1, 12] was 0.0943. For the same molecule, the “APD, Post-administration” value [1, 13] was 0.0948.
